Experimental data: the supplement of paper PMC10307832

How the values were obtained:
Experiment in all cases: relative viability (nuclei count vs DMSO), 5 days (fraction); higher = more cells survive
GSK-J4 + Olaparib = compound: CCOC(=O)CCNc1cc(N2CCc3ccccc3CC2)nc(-c2ccccn2)n1 [GSK-J4] + O=C(c1cc(Cc2n[nH]c(=O)c3ccccc23)ccc1F)N1CCN(C(=O)C2CC2)CC1 [Olaparib] (partner 8 µM)
In short: (§1)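 Lung cancer cell lines in 1536-well plates got either a single drug or a fixed anchor-drug dose together with five library-drug doses (not always all listed) in √10 steps, by pin tool, on the day after seeding. Nuclei were counted after 5 days, and relative viability is the treated-to-vehicle ratio of nuclei counts. Values are medians of duplicate plates.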

AZ3146 + Foretinib = compound: CN1CCC(CC1)OC2=CC(=C(C=C2)NC3=NC=C4C(=N3)N(C(=O)N4C)C5CCCC5)OC [AZ3146] + COc1cc2c(Oc3ccc(NC(=O)C4(C(=O)Nc5ccc(F)cc5)CC4)cc3F)ccnc2cc1OCCCN1CCOCC1 [Foretinib] (partner 0.25 µM)
In short: as §1

GSK-J4 + AZD7762 = compound: CCOC(=O)CCNc1cc(N2CCc3ccccc3CC2)nc(-c2ccccn2)n1 [GSK-J4] + NC(=O)Nc1cc(-c2cccc(F)c2)sc1C(=O)N[C@H]1CCCNC1 [AZD7762] (partner 0.2 µM)
In short: as §1

AZ3146 + Crizotinib = compound: CN1CCC(CC1)OC2=CC(=C(C=C2)NC3=NC=C4C(=N3)N(C(=O)N4C)C5CCCC5)OC [AZ3146] + C[C@@H](Oc1cc(-c2cnn(C3CCNCC3)c2)cnc1N)c1c(Cl)ccc(F)c1Cl [Crizotinib] (partner 1 µM)
In short: as §1

| Cell Line | relative viability (GSK-J4 + Olaparib; first compound 0.5 µM) | relative viability (GSK-J4 + Olaparib; first compound 1.581 µM) | relative viability (GSK-J4 + Olaparib; first compound 5 µM) | relative viability (GSK-J4 + Olaparib; first compound 15.81 µM) | relative viability (GSK-J4 + Olaparib; first compound 50 µM) | relative viability (AZ3146 + Foretinib; first compound 0.08 µM) | relative viability (AZ3146 + Foretinib; first compound 0.253 µM) | relative viability (AZ3146 + Foretinib; first compound 0.8 µM) | relative viability (AZ3146 + Foretinib; first compound 2.53 µM) | relative viability (AZ3146 + Foretinib; first compound 8 µM) | relative viability (GSK-J4 + AZD7762; first compound 0.5 µM) | relative viability (GSK-J4 + AZD7762; first compound 1.581 µM) | relative viability (GSK-J4 + AZD7762; first compound 5 µM) | relative viability (GSK-J4 + AZD7762; first compound 15.81 µM) | relative viability (GSK-J4 + AZD7762; first compound 50 µM) | relative viability (AZ3146 + Crizotinib; first compound 0.08 µM) | relative viability (AZ3146 + Crizotinib; first compound 0.253 µM) | relative viability (AZ3146 + Crizotinib; first compound 0.8 µM) | relative viability (AZ3146 + Crizotinib; first compound 2.53 µM) | relative viability (AZ3146 + Crizotinib; first compound 8 µM) |
| --- | --- | --- | --- | --- | --- | --- | --- | --- | --- | --- | --- | --- | --- | --- | --- | --- | --- | --- | --- | --- |
| 201T | 0.81 | 0.581 | 0.831 | 0.797 | 0.81 | 0.945 | 1.02 | 1.08 | 1.13 | 1.06 | 0.602 | 0.673 | 0.581 | 0.561 | 0.609 | 1.02 | 1.03 | 1 | 1.06 | 1.02 |
| A549 | 0.32 |  | 0.29 | 0.31 | 0.392 | 1.08 | 0.952 | 0.743 | 0.177 | 0.063 |  |  |  |  |  | 0.655 | 0.777 | 0.453 | 0.0847 | 0.0598 |
| A-427 | 0.714 | 0.701 |  | 0.66 | 0.295 | 1.02 | 1.07 | 1 | 0.989 | 1.11 | 0.684 | 0.441 |  | 0.576 | 0.328 | 0.877 | 0.927 | 0.869 | 0.804 | 0.444 |
| ABC-1 | 0.981 | 0.929 | 0.605 | 0.651 | 0.488 | 0.98 | 1.01 | 1.29 | 1.1 | 0.709 | 0.784 | 0.784 | 0.955 | 0.666 | 0.445 | 0.852 | 1.38 | 1.03 | 1.07 | 0.452 |
| BEN | 1.18 | 0.99 | 0.776 | 0.954 | 0.779 |  | 0.447 | 0.587 | 0.715 | 0.698 | 0.694 | 0.634 | 0.441 | 0.567 | 0.426 |  | 0.869 | 0.97 | 0.822 | 0.829 |
| CAL-12T | 0.668 | 0.63 | 0.772 | 0.673 | 0.548 | 1.08 | 1.12 | 1.04 | 0.98 | 0.788 | 0.705 | 0.646 | 0.557 | 0.649 | 0.675 | 0.507 | 0.72 | 0.595 | 0.733 | 0.247 |
| COR-L23 | 0.279 | 0.311 |  | 0.306 | 0.293 | 0.979 | 1.08 | 0.877 | 0.987 | 0.787 |  |  |  |  |  | 0.506 | 0.649 | 0.622 | 0.502 | 0.407 |
| COR-L 105 | 0.701 |  | 0.641 | 0.672 | 0.764 | 1.11 | 1.04 | 0.857 | 0.687 | 0.455 |  |  |  |  |  | 0.756 | 0.745 | 0.508 | 0.518 | 0.332 |
| Calu-6 | 0.559 | 0.567 | 0.587 | 0.53 | 0.608 | 0.792 | 0.996 | 0.891 | 0.792 | 0.48 |  |  |  |  |  | 0.715 | 0.763 | 0.701 | 0.465 | 0.256 |
| ChaGo-K-1 | 0.384 |  | 0.441 | 0.354 | 0.275 | 0.93 | 0.823 | 0.872 | 0.923 | 0.816 | 0.873 |  | 0.774 | 0.912 | 0.766 | 1 | 1.26 | 0.951 | 0.593 | 0.328 |
| EBC-1 | 0.603 | 0.567 | 0.676 | 0.655 | 0.453 | 0.112 | 0.0981 | 0.119 | 0.111 | 0.117 |  |  |  |  |  | 0.192 | 0.213 | 0.173 | 0.194 | 0.166 |
| EKVX | 0.867 |  | 0.859 | 0.681 | 0.703 | 0.798 | 0.753 | 0.735 | 0.869 | 0.788 | 0.714 |  | 0.732 | 0.669 | 0.535 | 0.957 | 1.12 | 1.06 | 1.1 | 0.365 |
| EMC-BAC-2 | 0.403 | 0.461 | 0.407 | 0.444 | 0.391 | 1.06 | 1.04 | 1.18 | 1.1 | 1.03 | 1.12 | 0.831 |  | 1.07 | 0.893 | 0.679 | 0.696 | 0.884 | 0.763 | 0.731 |
| EPLC-272H | 0.722 | 0.825 | 0.676 | 0.652 | 0.289 |  | 0.784 | 0.629 | 0.732 | 0.721 | 0.206 | 0.23 | 0.162 | 0.138 | 0.147 | 0.78 | 0.843 | 1.02 | 1.14 | 0.975 |
| H3255 | 0.553 | 0.521 | 0.523 | 0.445 | 0.362 | 0.773 | 0.764 | 0.927 | 1.04 | 0.922 | 0.827 | 0.791 | 0.727 | 0.791 | 0.656 | 0.841 | 0.884 | 0.886 | 1.03 | 0.442 |
| HARA | 0.767 | 0.761 |  | 0.888 | 0.343 | 0.823 | 0.858 | 0.895 | 0.895 | 0.197 | 0.349 | 0.36 |  | 0.218 | 0.161 | 0.983 | 1.03 | 1.03 | 0.72 | 0.206 |
| HCC-15 | 0.702 | 0.632 | 0.644 | 0.644 | 0.424 | 1.1 | 0.981 | 1.06 | 1.08 | 0.791 | 1.19 | 1.09 | 1.12 | 0.982 | 1.22 | 0.83 | 0.863 | 0.768 | 0.677 | 0.445 |
| HCC-44 | 0.945 | 0.945 | 0.999 | 1.08 | 0.906 |  |  |  |  |  | 0.95 | 0.939 | 0.962 | 1.11 | 1.05 | 0.779 | 0.791 | 0.724 | 0.796 | 0.668 |
